Values of other authors in patent US11389451B2, “Metolazone emulsion formulation” (ACADEMIC PHARMACEUTICALS, INC., priority 2017, dated 2022).

Details: background statement

- solubility in lipids: moderate to high
- solubility in water: low
Structure (SMILES): Cc1ccccc1N1C(=O)c2cc(S(N)(=O)=O)c(Cl)cc2NC1C (centres unmarked) [Metolazone]
